Experimental data: the supplement of paper PMC10307832

Legend:
Assay in all cases: relative viability (nuclei count vs DMSO), 5 days (fraction); higher = more cells survive
[1] = compound: C/C(=N\NC(=S)N1CCC1)/C2=CC=CC=N2 + CC(C)C[C@H](NC(=O)[C@H](Cc1ccccc1)NC(=O)c1cnccn1)B(O)O [Bortezomib] (partner 0.002 µM)
Procedure, shortened: (§1)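 Cells from lung cancer lines were seeded into 1536-well plates and, one day later, dosed by pin tool. Treatments were either a single drug or a fixed dose of an anchor drug with five library-drug doses (not always all listed) in √10 steps. After 5 days, nuclei were stained in a one-step fixation (final 0.05% Triton X-100, 1% formaldehyde, 1 ug/ml Hoechst) and counted on 4× images, and relative viability is the treated-to-vehicle nuclei ratio, as the median of duplicate plates.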

[2] = compound: C/C(=N\NC(=S)N1CCC1)/C2=CC=CC=N2 + Cc1cc(Nc2cc(N3CCN(C)CC3)nc(Sc3ccc(NC(=O)C4CC4)cc3)n2)n[nH]1 [Tozasertib] (partner 0.1 µM)
Procedure, shortened: as §1

[3] = compound: C/C(=N\NC(=S)N1CCC1)/C2=CC=CC=N2 + NC(=O)Nc1cc(-c2cccc(F)c2)sc1C(=O)N[C@H]1CCCNC1 [AZD7762] (partner 0.2 µM)
Procedure, shortened: as §1

[4] = compound: C/C(=N\NC(=S)N1CCC1)/C2=CC=CC=N2 + Nc1ncn([C@H]2C[C@H](O)[C@@H](CO)O2)c(=O)n1 [Decitabine] (partner 2 µM)
Procedure, shortened: as §1

Row | Cell Line | relative viability ([1]; first compound 0.05 µM) | relative viability ([1]; first compound 0.1581 µM) | relative viability ([1]; first compound 0.5 µM) | relative viability ([1]; first compound 1.581 µM) | relative viability ([1]; first compound 5 µM) | relative viability ([2]; first compound 0.05 µM) | relative viability ([2]; first compound 0.1581 µM) | relative viability ([2]; first compound 0.5 µM) | relative viability ([2]; first compound 1.581 µM) | relative viability ([2]; first compound 5 µM) | relative viability ([3]; first compound 0.05 µM) | relative viability ([3]; first compound 0.1581 µM) | relative viability ([3]; first compound 0.5 µM) | relative viability ([3]; first compound 1.581 µM) | relative viability ([3]; first compound 5 µM) | relative viability ([4]; first compound 0.05 µM) | relative viability ([4]; first compound 0.1581 µM) | relative viability ([4]; first compound 0.5 µM) | relative viability ([4]; first compound 1.581 µM) | relative viability ([4]; first compound 5 µM)
1 | HOP-62 | 0.067 | 0.0599 | 0.0594 | 0.0602 | 0.0491 | 0.129 | 0.109 | 0.0803 | 0.104 | 0.0835 | 0.0756 | 0.0789 | 0.0592 | 0.0773 | 0.111 | 0.121 | 0.142 | 0.0886 | 0.106 | 0.117
2 | LU99A | 0.135 | 0.108 | 0.165 | 0.124 | 0.147 | 0.155 | 0.164 | 0.164 | 0.152 | 0.165 | 0.153 | 0.12 | 0.125 | 0.107 | 0.14 | 0.222 | 0.624 | 0.171 | 0.162 | 0.173
3 | NCI-H647 | 0.165 | 0.105 | 0.0582 | 0.072 | 0.0851 | 0.0603 | 0.0452 | 0.0549 | 0.0672 | 0.0612 | 0.0396 | 0.0606 | 0.048 | 0.0361 | 0.0379 | 0.0887 | 0.123 | 0.117 | 0.0803 | 0.0922
4 | A-427 | 0.171 | 0.147 | 0.126 | 0.117 | 0.114 | 0.1 | 0.0846 | 0.12 | 0.077 | 0.102 | 0.188 | 0.173 | 0.159 | 0.156 | 0.178 | 0.182 | 0.214 | 0.194 | 0.171 | 0.17
5 | NCI-H441 | 0.162 | 0.153 | 0.171 | 0.146 | 0.127 | 0.294 | 0.229 | 0.159 | 0.168 | 0.195 | 0.264 | 0.178 | 0.173 | 0.144 | 0.153 | 0.185 | 0.163 | 0.17 | 0.134 | 0.126
6 | NCI-H2126 | 0.364 | 0.244 | 0.223 | 0.201 | 0.186 | 0.174 | 0.167 | 0.193 | 0.162 | 0.19 | 0.2 | 0.19 | 0.214 | 0.189 | 0.157 | 0.292 | 0.599 | 0.222 | 0.226 | 0.247
7 | HCC-44 | 0.335 | 0.234 | 0.221 | 0.19 | 0.239 | 0.359 | 0.309 | 0.257 | 0.246 | 0.231 | 0.702 | 0.573 | 0.488 | 0.445 | 0.47 | 0.559 | 0.544 | 0.52 | 0.551 | 0.428
8 | NCI-H460 | 0.0169 | 0.0164 | 0.0256 | 0.0129 | 0.0105 | 0.0816 | 0.0449 | 0.0431 | 0.0348 | 0.0095 | 0.0608 | 0.0607 | 0.0479 | 0.0377 | 0.0347 | 0.0547 | 0.04 | 0.0328 | 0.0221 | 0.0138
9 | NCI-H322M | 0.176 | 0.295 | 0.296 | 0.287 | 0.324 | 0.271 | 0.27 | 0.241 | 0.313 | 0.364 | 0.316 | 0.333 | 0.381 | 0.37 | 0.414 | 0.353 | 0.413 | 0.418 | 0.47 | 0.455
10 | EKVX | 0.138 | 0.129 | 0.103 | 0.141 | 0.144 | 0.131 | 0.108 | 0.101 | 0.103 | 0.12 | 0.106 | 0.115 | 0.128 | 0.14 | 0.143 | 0.15 | 0.138 | 0.13 | 0.138 | 0.16
11 | NCI-H1734 | 0.228 | 0.205 | 0.174 | 0.123 | 0.107 | 0.135 | 0.15 | 0.152 | 0.116 | 0.121 | 0.124 | 0.128 | 0.139 | 0.0896 | 0.101 | 0.136 | 0.152 | 0.132 | 0.123 | 0.102
12 | ABC-1 | 0.296 | 0.273 | 0.233 | 0.276 | 0.283 | 0.193 | 0.146 | 0.152 | 0.168 | 0.163 | 0.282 | 0.342 | 0.341 | 0.288 | 0.305 | 0.343 | 0.373 | 0.385 | 0.381 | 0.287
13 | EPLC-272H | 0.116 | 0.155 | 0.133 | 0.131 | 0.116 | 0.0738 | 0.0936 | 0.118 | 0.0848 | 0.114 | 0.106 | 0.104 | 0.106 | 0.0639 | 0.114 | 0.123 | 0.111 | 0.109 | 0.062 | 0.101
14 | NCI-H1993 | 0.431 | 0.506 | 0.463 | 0.406 | 0.483 | 0.479 | 0.466 | 0.449 | 0.513 | 0.51 | 0.302 | 0.372 | 0.387 | 0.373 | 0.317 | 0.42 | 0.497 | 0.342 | 0.431 | 0.381
15 | NCI-H596 | 0.518 | 0.309 | 0.237 | 0.233 | 0.276 | 0.445 | 0.34 | 0.191 | 0.195 | 0.2 | 0.331 | 0.321 | 0.312 | 0.244 | 0.297 | 0.887 | 0.408 | 0.335 | 0.317 | 0.418
16 | HCC-827 | 0.497 | 0.497 | 0.325 | 0.274 | 0.282 | 0.383 | 0.36 | 0.225 | 0.185 | 0.148 | 0.14 | 0.176 | 0.104 | 0.106 | 0.172 | 0.253 | 0.244 | 0.237 | 0.182 | 0.185
17 | ChaGo-K-1 | 0.285 | 0.462 | 0.285 | 0.221 | 0.318 | 0.141 | 0.154 | 0.17 | 0.151 | 0.168 | 0.177 | 0.175 | 0.154 | 0.154 | 0.154 | 0.159 | 0.321 | 0.147 | 0.174 | 0.178
18 | EMC-BAC-2 | 0.104 | 0.142 | 0.149 | 0.174 | 0.16 | 0.176 | 0.187 | 0.147 | 0.151 | 0.167 | 0.252 | 0.259 | 0.241 | 0.176 | 0.216 | 0.261 | 0.268 | 0.228 | 0.219 | 0.212
19 | NCI-H23 | 0.108 | 0.148 | 0.171 | 0.105 | 0.136 | 0.122 | 0.172 | 0.119 | 0.112 | 0.133 | 0.0952 | 0.131 | 0.124 | 0.096 | 0.131 | 0.178 | 0.2 | 0.161 | 0.172 | 0.202
20 | RERF-LC-KJ | 0.256 | 0.298 | 0.304 | 0.243 | 0.267 | 0.203 | 0.208 | 0.246 | 0.217 | 0.242 | 0.176 | 0.238 | 0.18 | 0.16 | 0.208 | 0.234 | 0.235 | 0.215 | 0.283 | 0.247
21 | LC-2-ad | 0.115 | 0.106 | 0.114 | 0.104 | 0.0851 | 0.253 | 0.244 | 0.23 | 0.171 | 0.207 | 0.212 | 0.202 | 0.182 | 0.165 | 0.163 | 0.267 | 0.244 | 0.204 | 0.227 | 0.22
22 | HCC-15 | 0.133 | 0.0661 | 0.0658 | 0.0754 | 0.0698 | 0.0765 | 0.0513 | 0.112 | 0.0654 | 0.0641 | 0.084 | 0.084 | 0.105 | 0.113 | 0.103 | 0.0738 | 0.16 | 0.117 | 0.0902 | 0.0924
23 | NCI-H2405 | 0.275 | 0.31 | 0.322 | 0.286 | 0.989 | 0.24 | 0.286 | 0.266 | 0.239 | 0.253 | 0.215 | 0.245 | 0.253 | 0.186 | 0.23 | 0.284 | 0.246 | 0.24 | 0.239 | 0.246
24 | LXF-289 | 0.314 | 0.216 | 0.255 | 0.203 | 0.121 | 0.126 | 0.108 | 0.114 | 0.124 | 0.0738 | 0.212 | 0.266 | 0.218 | 0.124 | 0.116 | 0.274 | 0.356 | 0.198 | 0.236 | 0.158
25 | NCI-H1755 | 0.331 | 0.287 | 0.208 | 0.206 | 0.204 | 0.465 | 0.305 | 0.213 | 0.278 | 0.258 | 0.357 | 0.262 | 0.253 | 0.256 | 0.292 | 0.503 | 0.664 | 0.311 | 0.271 | 0.346
26 | NCI-H1437 | 0.121 | 0.137 | 0.0867 | 0.0717 | 0.0851 | 0.144 | 0.138 | 0.157 | 0.133 | 0.102 | 0.353 | 0.278 | 0.243 | 0.239 | 0.176 | 0.263 | 0.248 | 0.246 | 0.199 | 0.172
